Experiments:
[1] = clinical; parameters: species or system human; details: in vivo
Description: The fetal subject assigned to this treatment plan received risdiplam through the carrier after all basic organ systems of the fetal subject had substantially completed fundamental embryogenesis in its third trimester of development in a range of from about thirty-two and a half weeks to its delivery from the carrier at about thirty-eight and a half weeks gestation. During this period, risdiplam was administered to the fetal subject through a carrier treatment cycle in which a single daily dose of 5 mg of risdiplam was administered orally to the carrier of the fetal subject.
Risdiplam trough drug levels were obtained from the carrier and the subject as the neonatal subject at time points represented in Table 2A and Table 2B from 32.5 weeks gestation prior to administration of risdiplam to the carrier through 43 days post-delivery. The risdiplam drug levels detected in plasma (ng/mL) of the carrier and the neonatal subject were determined by liquid chromatography-tandem mass spectroscopy (LC-MS/MS).
Since it was determined that a level of the risdiplam in the cord blood of the neonatal subject was less than about 100 ng/mL or about 0.1 mg/L when the neonatal subject was bom, the neonatal treatment cycle was initiated. The neonatal treatment cycle began 8 days after birth (d8) and included administering risdiplam to the neonatal subject at a single daily dose of 0.15 mg/kg.
In addition, in Table 3, blood samples for risdiplam PK and PD were collected from the carrier prior to the first dose of the risdiplam and 24-hours post- dose of the risdiplam. PK/PD samples were collected from the carrier every two weeks for up to six weeks after delivery to assess risdiplam clearance. At the time of delivery, samples of umbilical cord blood and amniotic fluid were collected to assess risdiplam exposure to the fetal subject in utero. Collection of the cord blood and the amniotic fluid could have also included collection of the cord blood and the amniotic fluid during pregnancy of the carrier if an amniocentesis was deemed to be needed.

[2] = system: neonatal subject; test: Electrophysiological testing (CMAP, MUNE); type: in vivo, human
Description: The electrophysiological testing described in this Example can serve as a prognostic biomarker. See Pino (2021) Biomark. Insights. 16:11772719211035643. Electrophysiological studies were performed using standard technique on a Natus UltraPro S100 instrument, with Natus pre-gelled disposable surface electrodes (#901350242) and standard settings for motor nerve conduction studies (LFF 10 Hz and HFF […]). The right ulnar nerve was stimulated at the elbow and recorded from the abductor digiti minimi (ADM) and the peroneal (fibular) nerve was stimulated at the knee and recorded from the tibialis anterior (TA) muscle.
Electrophysiological measurements, such as the compound muscle action potential (CMAP) in millivolts (mV) and motor unit number estimation (MUNE), monitor the functional status of the motor unit pool and are particularly pertinent to motor neuron disorders. See Arnold (2014) Ann. Clin. Transl. Neurol. 1(1):34:44. Cross-sectional studies have shown that CMAP and MUNE correlate with other measures of motor function, clinical severity, and overall function. See Arnold (2014) Ann. Clin. Transl. Neurol. 1(1):34:44.
The CMAP response measures the output of the motor units supplying a particular muscle or group of muscles. The CMAP size is determined by the size and number of depolarized muscle fibers following supramaximal nerve stimulation. Three active electrode placements were used for each nerve tested and the maximal amplitude of the negative peak of the CMAP was used for analysis. As a reference study for the CMAP data provided in Table 6, an ongoing Phase 2, open-label study (NURTURE) aims to evaluate the safety and efficacy of nusinersen in preventing or profoundly attenuating the severity of SMA when initiated prior to the onset of symptoms. See De Vivo (2019) Neuromuscul. Disord. 29(11):842-856. In accordance with this reference study, CMAP amplitudes were mean (SD) 2.7 (1.5) and median (range) 2.3 (1.0-6.7) and NeuroNEXT (typically developing infants) was mean (SD) 5.5±2.0. See Kolb (2016) Ann. Clin. Transl. Neurol. 3(2):132-45.
MUNE is an electrophysiological method that can measure the number of motor units supplying a particular muscle. It should be appreciated that the “N” of MUNE (ulnar N) in Table 6 refers to “nerve.” For pre-symptomatic SMA neonates, MUNE (ulnar N) ranges from 70-270. See Bromberg (2002) Muscle Nerve. 25(3):445-7; and Swoboda (2005) Ann Neurol. 57(5):704-12. In this Example, the MUNE was performed on the right ulnar nerve using the multipoint technique. A minimum of ten unique single motor unit potentials were captured with the mean value used for the calculation of the MUNE. […] See Swoboda, et al. (2005) Ann. Neurol. 57:704-712; and Bromberg (2002) Muscle Nerve 25:445-447.

Risdiplam level in amniotic fluid (AF) ([1]; female, human): 5.09 ng/mL | Risdiplam level in plasma, venous (V) ([1]; female, human): 15.6 ng/mL | concentration at 43 d postnatal ([1]; female, human): 0.0004 µg/mL | Risdiplam level in plasma ([1]; female, human, 20 d postnatal): 0.7 ng/mL | Risdiplam level in plasma ([1]; female, human, 29 d postnatal): 0.6 ng/mL | Kp ([1]; female, human, Amniotic fluid risdiplam level relative to carrier plasma venous level): ~0.33 | Kp ([1]; female, human, Cord venous and arterial plasma risdiplam level relative to carrier plasma level): ~0.69 | Level of risdiplam in cord blood ([1]; human): less than 100 ng/mL | Risdiplam level in cord plasma, arterial (A) ([1]; human): 10.4 ng/mL | Risdiplam level in cord plasma, venous (V) ([1]; human): 11.2 ng/mL | half-life ([1]; human): 46 h | Risdiplam level in plasma ([1]; human, 8 d postnatal): 0.6 ng/mL | concentration at 43 d postnatal ([1]; human, po, 0.15 mg/kg/day): 0.062 µg/mL | Risdiplam trough level in plasma [1]: BLQ* | Placental transfer from carrier to fetal subject ([1]; po): crosses the placenta
Structure (SMILES): Cc1cn2nc(-c3cc(=O)n4cc(N5CCNC6(CC6)C5)ccc4n3)cc(C)c2n1 [risdiplam, 7-(4,7-diazaspiro[2.5]octan-7-yl)-2-(2,8-dimethylimidazo[1,2-b]pyridazin-6-yl)-4H-pyrido[1,2-a]pyrimidin-4-one]
MUNE (Ulnar N) ([2]; 1 week): 167 | Peroneal N CMAP ([2]; 1 week): 2.7 mV | Ulnar N CMAP ([2]; 1 week): 4.6 mV | Ulnar nerve CMAP relative to NURTURE median 2.3 mV ([2]; 1 week): 2 fold | MUNE (Ulnar N) ([2]; 6 weeks): 313 | Peroneal N CMAP ([2]; 6 weeks): 3.5 mV | Ulnar N CMAP ([2]; 6 weeks): 5.8 mV | Ulnar nerve CMAP relative to NURTURE median 2.3 mV ([2]; 6 weeks): 2.5 fold | MUNE (Ulnar N) ([2]; 18 weeks): 296 | Ulnar N CMAP ([2]; 18 weeks): 7.1 mV

— patent US20240173325A1, “METHODS FOR TREATING SPINAL MUSCULAR ATROPHY” (Genentech, Inc., priority 2022, published 2024)
